US20210236476A1, “METHODS OF TREATING CANCER WITH SMALL MOLECULE PD-L1 INHIBITORS” (CHEMOCENTRYX, INC., priority 2018, published 2021)

Target: T1, human PD-L1 / human PD-1 interaction (Homo sapiens, UniProt Q9NZQ7)
T1 construct: purchased R&D (PD-L1); ACRO Biosystems (PD-1, biotin)
Assay: ELISA of PD-1/PD-L1 interaction
Assay type: binding
Protocol: The activity of Compound 1.041 was assessed with an ELISA assay assessing the direct binding of recombinant PD-1 and PD-L1 proteins (FIG. 1A), a dimerization ELISA assay assessing the direct binding/dimerization of recombinant PD-L1 proteins (FIG. 1B), a cell based assay measuring the downstream signaling following the interaction of PD-1 and PD-L1 using a Luciferase reporter assay with cell lines overexpressing PD-1 and PD-L1 (FIG. 1C), and a mixed lymphocyte reaction assay measuring the functional outcome of upregulation of IFNg secretion, using allogenic primary human immune cells (FIG. 1D). Briefly, the mixed lymophocyte reaction assay was performed as follows: Dendritic cells and CD4+T Cells from unmatched donors were cultured together for 5 days in 96 well-flat bottom plates. Test compound was added as indicated at starting concentration of 1 μM with 1:4 dilutions with DMSO. Supernatants were harvested after 5 days of incubation and detection of human IFNg was performed by ELISA. […]
96 Well plates were coated with 1 μg/mL of human PD-L1 (obtained from R&D) in
PBS overnight at 4° C. The wells were then blocked with 2% BSA in PBS (WN) with 0.05% TWEEN-20 for 1 hour at 37° C. The plates were washed 3 times with PBS/0.05% TWEEN-20 and the compounds were serial diluted (1:5) in dilution medium and added to the ELISA plates. Human PD-1 and biotin 0.3μg/mL (ACRO Biosystems) were added and incubated for 1 hour at 37° C. then washed 3 times with PBS/0.05% TWEEN-20. A second block was performed with 2% BSA in PBS (WN)/0.05% TWEEN-20 for 10 min at 37° C. and was washed 3 times with PBS/0.05% TWEEN-20. Streptavidin—HRP was added for 1 hour at 37° C. then washed 3 times with PBS/0.05% TWEEN-20. TMB substrate was added and reacted for 20 min at 37° C. A stop solution (2 N aqueous H2SO4) was added. The absorbance was read at 450 nm using a micro-plate spectrophotometer.

T1 sequence (Q9NZQ7 19-239 limits assumed): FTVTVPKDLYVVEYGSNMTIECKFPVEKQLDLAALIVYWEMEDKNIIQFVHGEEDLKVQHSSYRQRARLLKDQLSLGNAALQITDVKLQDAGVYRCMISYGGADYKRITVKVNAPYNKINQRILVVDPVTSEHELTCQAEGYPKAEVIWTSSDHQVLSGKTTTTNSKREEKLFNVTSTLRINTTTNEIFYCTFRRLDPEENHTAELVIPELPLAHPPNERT

Structure (SMILES)	IC50 [nM]
CCOc1cc(O[C@H]2CCc3c(-c4cccc(OCCCN5[C@H](C)CC[C@H]5C)c4C)cccc32)c(Cl)cc1CN1CCCC[C@H]1C(=O)O	5 to 500
CCOc1cc(O[C@H]2CCc3c(-c4cccc(OCCCN5CCC5(C)C)c4C)cccc32)c(Cl)cc1CN(C)CC(=O)O	5 to 500
N#Cc1cncc(COc2cc(O[C@H]3CCc4c(-c5cccc(OCCCN6CC7(CC(F)C7)C6)c5Cl)cccc43)c(Cl)cc2CN[C@H]2CC[C@@H]2O)c1	< 5
C[C@@H](O)[C@H](NCc1cc(Cl)c(O[C@H]2CCc3c(-c4cccc(OCCCN5CCC(O)CC5)c4F)cccc32)cc1OCc1cncc(C#N)c1)C(=O)O	< 5
Cc1c(OCCCN2CCC(F)CC2)cccc1-c1cccc2c1CC[C@@H]2Oc1cc(OCc2cncc(C#N)c2)c(CNCCS(=O)(=O)O)cc1Cl	< 5
Cc1c(OCCCN2CCC(C)(F)CC2)cccc1-c1cccc2c1CC[C@@H]2Oc1cc(OCc2cncc(C#N)c2)c(CNC[C@@H]2CCC(=O)N2)cc1Cl	< 5
Cc1c(OCCCN2CCC(O)CC2)cccc1-c1cccc2c1CC[C@@H]2Oc1cc(OCc2cncc(C#N)c2)c(CN2CC[C@H](O)C2)cc1Cl	< 5
Cc1c(OCCCN2CCC(O)CC2)cccc1-c1cccc2c1CC[C@@H]2Oc1cc(OCc2cncc(C#N)c2)c(CN[C@H](C(N)=O)[C@@H](C)O)cc1Cl	< 5
CC1(F)CCN(CCCOc2cccc(-c3cccc4c3CC[C@@H]4Oc3cc(OCc4cncc(C#N)c4)c(CNC[C@@H]4CCC(=O)N4)cc3Cl)c2Cl)CC1	< 5
C[C@@](CO)(NCc1cc(Cl)c(O[C@H]2CCc3c(-c4cccc(OCCCN5CC(O)C5)c4Cl)cccc32)cc1OCc1cncc(C#N)c1)C(=O)O [drawing 79]	< 5
N#Cc1cncc(COc2cc(O[C@H]3CCc4c(-c5cccc(OCCCN6CC7(CCC7)C6)c5Cl)cccc43)c(Cl)cc2CN[C@@H]2CCCC[C@@H]2O)c1	< 5
N#Cc1cncc(COc2cc(O[C@H]3CCc4c(-c5cccc(OCCCN6CC7(CC(O)C7)C6)c5Cl)cccc43)c(Cl)cc2CN[C@@H]2CCC[C@@H]2O)c1	< 5
Cc1c(OCCCN2CCC(F)CC2)cccc1-c1cccc2c1CC[C@@H]2Oc1cc(OCc2cc(C#N)cc(C#N)c2)c(CN[C@@H]2CCC[C@@H]2O)cc1Cl	< 5
N#Cc1cncc(COc2cc(O[C@H]3CCc4c(-c5cccc(OCCCN6CCC(F)CC6)c5Cl)cccc43)c(Cl)cc2CN[C@H]2CCOC[C@@H]2O)c1 [drawing 198]	< 5
Cc1c(OCCCN2CC[C@@H](O)C2)cccc1-c1cccc2c1CC[C@@H]2Oc1cc(OCc2cncc(C#N)c2)c(CN[C@H](C(=O)O)[C@@H](C)O)cc1Cl	< 5
N#Cc1cncc(COc2cc(O[C@H]3CCc4c(-c5cccc(OCCCN6CCC6)c5Cl)cccc43)c(Cl)cc2CNC[C@H]2CCC(=O)N2)c1	< 5

Structure (SMILES)	IC50 [nM]
CCOc1cc(O[C@H]2CCc3c(-c4cccc(OCCCN5CCC(O)CC5)c4C)cccc32)c(Cl)cc1CN[C@H](C(=O)O)[C@@H](C)O	< 5
N#Cc1cncc(COc2cc(O[C@H]3CCc4c(-c5cccc(OCCCN6CCC(F)CC6)c5Cl)cccc43)c(Cl)cc2CN[C@H]2CC[C@@H]2O)c1	< 5
CC1(F)CCN(CCCOc2cccc(-c3cccc4c3CC[C@@H]4Oc3cc(OCc4cncc(C#N)c4)c(CN[C@@H]4CCCC[C@@H]4O)cc3Cl)c2Cl)CC1	< 5
CC1(F)CCN(CCCOc2cccc(-c3cccc4c3CC[C@@H]4Oc3cc(OCc4cncc(C#N)c4)c(CN[C@H]4CCC(=O)NC4)cc3Cl)c2Cl)CC1	5 to 500
Cc1c(OCCCN2CCC(C)(O)CC2)cccc1-c1cccc2c1CC[C@@H]2Oc1cc(OCc2cc(C#N)cc(C#N)c2)c(CNC[C@@H]2CCC(=O)N2)cc1Cl	< 5
Cc1c(OCCCN2CCCC[C@H]2C)cccc1-c1cccc2c1CC[C@@H]2Oc1cc(OCc2cc(C#N)cc(C#N)c2)c(CNC[C@H]2CCC(=O)N2)cc1Cl	< 5
Cc1c(OCCCN2CCC(F)CC2)cccc1-c1cccc2c1CC[C@@H]2Oc1cc(OCc2cc(C#N)cc(C#N)c2)c(CN[C@@H]2CCOC[C@H]2O)cc1Cl	< 5
C[C@@](CO)(NCc1cc(Cl)c(O[C@@H]2c3cccc(-c4cccc(OCCCN5CC(F)C5)c4Cl)c3C[C@@H]2F)cc1OCc1cncc(C#N)c1)C(=O)O	< 5
N#Cc1cncc(COc2cc(O[C@H]3CCc4c(-c5cccc(OCCCN6CC7(CC(O)C7)C6)c5Cl)cccc43)c(Cl)cc2CN[C@H]2CCC[C@@H]2O)c1	< 5
C[C@@](CO)(NCc1cc(Cl)c(O[C@H]2CCc3c(-c4cccc(OCCCN)c4Cl)cccc32)cc1OCc1cncc(C#N)c1)C(=O)O	< 5
C[C@@](CO)(NCc1cc(Cl)c(O[C@H]2CCc3c(-c4cccc(OCCCN5CCC(O)CC5)c4Cl)cccc32)cc1OCc1cncc(C#N)c1)C(=O)O	< 5
Cc1c(OCCCN2CCC(O)CC2)cccc1-c1cccc2c1CC[C@@H]2Oc1cc(OCc2cc(C#N)cc(C#N)c2)c(CN[C@@](C)(CO)C(=O)O)cc1Cl	< 5
Cc1c(OCCCN2CCC(O)CC2)cccc1-c1cccc2c1CCC2Oc1cc(OCc2cc(C#N)cc(C#N)c2)c(CN[C@@H]2CCCC[C@@H]2O)cc1Cl (stereo partly shown)	< 5
N#Cc1cncc(COc2cc(O[C@H]3CCc4c(-c5cccc(OCCCN6CC7(C6)CC(F)(F)C7)c5Cl)cccc43)c(Cl)cc2CN[C@@H]2CCCC[C@@H]2O)c1	< 5
N#Cc1cncc(COc2cc(O[C@H]3CCc4c(-c5cccc(OCCCN6CC7(C6)CC(F)(F)C7)c5Cl)cccc43)c(Cl)cc2CN[C@@H]2CCC[C@@H]2O)c1	< 5

Continued, values first:

IC50 [nM]	Structure (SMILES)
< 5	CC(C)(O)CNCc1cc(Cl)c(O[C@H]2CCc3c(-c4cccc(OCCCN5CC(O)C5)c4Cl)cccc32)cc1OCc1cncc(C#N)c1
< 5	Cc1c(OCCCN2CCC(O)CC2)cccc1-c1cccc2c1CC[C@@H]2Oc1cc(OCc2cncc(C#N)c2)c(CN[C@H](C(=O)NS(C)(=O)=O)[C@@H](C)O)cc1Cl
< 5	C[C@@H](O)[C@H](NCc1cc(Cl)c(O[C@H]2CCc3c(-c4cccc(OCCCN5CCC(O)CC5)c4Cl)cccc32)cc1OCc1cncc(C#N)c1)C(=O)O
< 5	Cc1c(OCCCN2CCC(F)CC2)cccc1-c1cccc2c1CC[C@@H]2Oc1cc(OCc2cc(C#N)cc(C#N)c2)c(CN[C@H]2CCOC[C@H]2O)cc1Cl
< 5	C[C@@H](O)[C@H](NCc1cc(Cl)c(O[C@H]2CCc3c(-c4cccc(OCCCN5CCC(O)CC5)c4Cl)cccc32)cc1OCc1cncc(C#N)c1)C(N)=O
< 5	CCOc1cc(O[C@H]2CCc3c(-c4cccc(OCCCN5CC6(CC(O)C6)C5)c4C)cccc32)c(Cl)cc1CN[C@@H](CO)C(=O)O
< 5	N#Cc1cncc(COc2cc(O[C@H]3CCc4c(-c5cccc(OCCCN6CC7(CC(O)C7)C6)c5Cl)cccc43)c(Cl)cc2CN[C@H]2CCC[C@H]2O)c1
< 5	N#Cc1cncc(COc2cc(O[C@H]3CCc4c(-c5cccc(OCCCN6CC[C@@H](F)C6)c5Cl)cccc43)c(Cl)cc2CN[C@@H]2CCCC[C@@H]2O)c1
< 5	CC(C)N1CCC(COc2cccc(-c3cccc4c3CC[C@@H]4Oc3cc(OCc4cncc(C#N)c4)c(CN[C@H]4CCC(=O)NC4)cc3Cl)c2Cl)C1 (stereo partly shown)
< 5	Cc1c(OCCCN2CCC(O)CC2)cccc1-c1cccc2c1CC[C@@H]2Oc1cc(OCc2cncc(C#N)c2)c(CNC2(C(=O)O)CCC2)cc1Cl
< 5	Cc1c(OCCCNCC(C)(C)O)cccc1-c1cccc2c1CC[C@@H]2Oc1cc(OCc2cncc(C#N)c2)c(CNCC2CCC(=O)N2)cc1Cl (stereo partly shown)
< 5	N#Cc1cncc(COc2cc(O[C@H]3CCc4c(-c5cccc(OCCCN6CCC(F)CC6)c5Cl)cccc43)c(Cl)cc2CNCC2CNC(=O)C2)c1 (stereo partly shown)
< 5	Cc1c(OCCCN2[C@H](C)CC[C@@H]2C)cccc1-c1cccc2c1CC[C@@H]2Oc1cc(OCc2cc(C#N)cc(C#N)c2)c(CN[C@H]2CCC(=O)NC2)cc1Cl
< 5	Cc1c(OCCCN2CCCC2(C)C)cccc1-c1cccc2c1CC[C@@H]2Oc1cc(OCc2cc(C#N)cc(C#N)c2)c(CN[C@H]2CCC(=O)NC2)cc1Cl
< 5	CCN1CCC(COc2cccc(-c3cccc4c3CC[C@@H]4Oc3cc(OCc4cncc(C#N)c4)c(CNC[C@@H]4CCC(=O)N4)cc3Cl)c2Cl)C1 (stereo partly shown)
< 5	N#Cc1cncc(COc2cc(O[C@H]3CCc4c(-c5cccc(OCCCN6CCC(F)CC6)c5Cl)cccc43)c(Cl)cc2CN[C@@H]2CCC[C@H]2O)c1
< 5	Cc1c(OCCCN2CCC2)cccc1-c1cccc2c1CC[C@@H]2Oc1cc(OCc2cc(C#N)cc(C#N)c2)c(CNC[C@H]2CCC(=O)N2)cc1Cl
< 5	Cc1c(OCCCN2CCC(O)CC2)cccc1-c1cccc2c1CC[C@@H]2Oc1cc(OCc2cncc(C#N)c2)c(CN2CC(C(=O)O)C2)cc1Cl
< 5	CC(=O)OC1CCN(CCCOc2cccc(-c3cccc4c3CC[C@@H]4Oc3cc(OCc4cncc(C#N)c4)c(CN[C@@H]4CCCC[C@@H]4O)cc3Cl)c2Cl)CC1
< 5	C[C@@H](O)[C@H](NCc1cc(Cl)c(O[C@H]2CCc3c(-c4cccc(OCCCN5CCCCC5)c4Cl)cccc32)cc1OCc1cncc(C#N)c1)C(=O)NS(C)(=O)=O
< 5	Cc1c(OCCCN2CC(O)C2)cccc1-c1cccc2c1CC[C@@H]2Oc1cc(OCc2cncc(C#N)c2)c(CNCC2CCC(=O)N2)cc1Cl (stereo partly shown)
